Measured values as given in ChEMBL document CHEMBL1133572, “Protease inhibitors: current status and future prospects” (J Med Chem, 2000).
Converted amounts (≈) assume the structure as drawn. Blank lines part the entries; values can stand above or below the compound they belong to. Residues, ends and D or L forms follow the SMILES beside them. *: point of attachment. Cbz = O=C(OCc1ccccc1)*

Key:
Cathepsin S = Cathepsin S (Homo sapiens, UniProt P25774); experiment: The apparent binding affinity against cathepsin S.; conditions: read-out: Ki app
Cathepsin S, sequence (P25774 whole entry): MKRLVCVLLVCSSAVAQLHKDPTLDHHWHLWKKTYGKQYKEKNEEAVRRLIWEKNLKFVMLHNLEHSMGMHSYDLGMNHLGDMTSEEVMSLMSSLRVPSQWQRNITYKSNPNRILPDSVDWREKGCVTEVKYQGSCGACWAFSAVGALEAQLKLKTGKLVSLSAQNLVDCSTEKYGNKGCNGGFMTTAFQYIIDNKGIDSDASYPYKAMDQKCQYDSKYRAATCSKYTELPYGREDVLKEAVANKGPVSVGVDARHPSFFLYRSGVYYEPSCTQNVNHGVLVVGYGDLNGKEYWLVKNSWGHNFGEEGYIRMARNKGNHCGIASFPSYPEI

Procathepsin L [1] = molecular target: T1, Procathepsin L (Homo sapiens, UniProt P07711)
T1 sequence (P07711 whole entry): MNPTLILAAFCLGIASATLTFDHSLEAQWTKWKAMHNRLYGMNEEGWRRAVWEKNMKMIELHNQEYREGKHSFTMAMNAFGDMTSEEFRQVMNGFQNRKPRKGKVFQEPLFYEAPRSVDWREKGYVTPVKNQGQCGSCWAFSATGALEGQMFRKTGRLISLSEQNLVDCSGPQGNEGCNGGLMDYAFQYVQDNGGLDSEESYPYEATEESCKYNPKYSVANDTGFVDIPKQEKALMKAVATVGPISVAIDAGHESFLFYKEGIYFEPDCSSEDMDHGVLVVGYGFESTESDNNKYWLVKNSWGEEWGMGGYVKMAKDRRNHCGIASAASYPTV

Cathepsin B = Cathepsin B (Homo sapiens, UniProt P07858)
Cathepsin K = Cathepsin K (Homo sapiens, UniProt P43235); experiment: The apparent binding affinity against cathepsin K.; conditions: read-out: Ki app
Cathepsin K, sequence (P43235 whole entry): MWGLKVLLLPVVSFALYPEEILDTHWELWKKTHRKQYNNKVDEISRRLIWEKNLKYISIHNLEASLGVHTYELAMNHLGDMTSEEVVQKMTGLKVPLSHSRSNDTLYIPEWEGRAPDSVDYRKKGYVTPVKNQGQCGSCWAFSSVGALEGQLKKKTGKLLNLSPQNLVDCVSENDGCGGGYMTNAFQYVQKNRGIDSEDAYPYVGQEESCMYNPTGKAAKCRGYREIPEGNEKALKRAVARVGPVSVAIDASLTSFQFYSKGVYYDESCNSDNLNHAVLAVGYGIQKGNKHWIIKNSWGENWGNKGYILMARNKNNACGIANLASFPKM

Neprilysin = molecular target: T2, Neprilysin (Rattus norvegicus, UniProt P07861)
T2 sequence (P07861 whole entry): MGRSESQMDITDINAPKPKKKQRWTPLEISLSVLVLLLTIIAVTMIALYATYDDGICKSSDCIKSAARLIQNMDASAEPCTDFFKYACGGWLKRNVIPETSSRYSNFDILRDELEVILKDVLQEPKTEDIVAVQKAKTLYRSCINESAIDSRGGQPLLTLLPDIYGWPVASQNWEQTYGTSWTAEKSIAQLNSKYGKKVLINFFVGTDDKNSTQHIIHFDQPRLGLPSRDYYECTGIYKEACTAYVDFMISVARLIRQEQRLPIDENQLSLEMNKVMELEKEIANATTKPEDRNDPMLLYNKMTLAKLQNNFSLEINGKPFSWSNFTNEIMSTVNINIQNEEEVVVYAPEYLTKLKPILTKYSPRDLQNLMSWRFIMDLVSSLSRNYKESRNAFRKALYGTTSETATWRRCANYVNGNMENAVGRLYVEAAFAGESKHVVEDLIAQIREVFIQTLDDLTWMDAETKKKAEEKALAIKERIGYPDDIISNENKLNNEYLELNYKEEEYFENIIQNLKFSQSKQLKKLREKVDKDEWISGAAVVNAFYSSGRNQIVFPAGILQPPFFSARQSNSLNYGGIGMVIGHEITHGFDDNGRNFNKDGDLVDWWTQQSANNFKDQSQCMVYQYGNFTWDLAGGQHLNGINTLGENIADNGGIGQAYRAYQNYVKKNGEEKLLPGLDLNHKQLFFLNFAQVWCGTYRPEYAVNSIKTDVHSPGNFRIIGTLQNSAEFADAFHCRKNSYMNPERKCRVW

[2] = molecular target: Angiotensin-converting enzyme (Homo sapiens, UniProt P12821)
Angiotensin-converting enzyme, sequence (P12821 whole entry): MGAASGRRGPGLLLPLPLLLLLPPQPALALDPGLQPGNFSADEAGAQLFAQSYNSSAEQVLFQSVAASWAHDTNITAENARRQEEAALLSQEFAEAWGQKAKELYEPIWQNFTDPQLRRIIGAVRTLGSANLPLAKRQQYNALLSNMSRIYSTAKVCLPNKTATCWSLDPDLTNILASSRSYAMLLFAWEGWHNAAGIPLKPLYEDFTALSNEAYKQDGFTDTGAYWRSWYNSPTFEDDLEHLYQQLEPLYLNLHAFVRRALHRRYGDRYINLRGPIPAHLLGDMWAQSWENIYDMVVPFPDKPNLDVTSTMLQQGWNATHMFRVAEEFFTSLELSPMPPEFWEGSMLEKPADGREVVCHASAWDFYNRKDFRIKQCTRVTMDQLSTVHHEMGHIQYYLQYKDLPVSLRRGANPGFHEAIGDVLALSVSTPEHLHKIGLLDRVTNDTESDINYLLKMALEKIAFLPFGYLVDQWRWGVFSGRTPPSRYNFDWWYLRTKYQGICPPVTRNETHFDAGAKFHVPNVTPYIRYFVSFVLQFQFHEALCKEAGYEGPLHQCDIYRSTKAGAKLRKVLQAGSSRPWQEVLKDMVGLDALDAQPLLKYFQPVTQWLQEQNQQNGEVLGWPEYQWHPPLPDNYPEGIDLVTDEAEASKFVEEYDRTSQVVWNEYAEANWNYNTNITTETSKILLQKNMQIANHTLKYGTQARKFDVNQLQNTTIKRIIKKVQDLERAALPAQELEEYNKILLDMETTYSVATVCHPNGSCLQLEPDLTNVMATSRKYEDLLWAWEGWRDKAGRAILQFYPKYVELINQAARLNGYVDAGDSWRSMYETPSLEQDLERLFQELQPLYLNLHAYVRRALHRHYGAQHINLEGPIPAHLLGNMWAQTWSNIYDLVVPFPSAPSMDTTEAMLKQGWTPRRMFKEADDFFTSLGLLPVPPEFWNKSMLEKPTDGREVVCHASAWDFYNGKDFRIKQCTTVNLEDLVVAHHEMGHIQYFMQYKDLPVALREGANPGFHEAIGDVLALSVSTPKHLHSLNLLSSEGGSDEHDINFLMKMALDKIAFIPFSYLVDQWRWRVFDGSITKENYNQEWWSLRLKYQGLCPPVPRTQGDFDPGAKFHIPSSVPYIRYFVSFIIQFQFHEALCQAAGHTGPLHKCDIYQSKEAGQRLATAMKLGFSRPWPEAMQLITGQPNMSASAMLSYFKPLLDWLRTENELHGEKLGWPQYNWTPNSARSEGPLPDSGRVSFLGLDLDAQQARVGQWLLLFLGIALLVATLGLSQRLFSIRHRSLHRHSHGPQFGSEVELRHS

Serine protease 1 [3] = molecular target: T3, Serine protease 1 (Homo sapiens, UniProt P07477)
T3 sequence (P07477 whole entry): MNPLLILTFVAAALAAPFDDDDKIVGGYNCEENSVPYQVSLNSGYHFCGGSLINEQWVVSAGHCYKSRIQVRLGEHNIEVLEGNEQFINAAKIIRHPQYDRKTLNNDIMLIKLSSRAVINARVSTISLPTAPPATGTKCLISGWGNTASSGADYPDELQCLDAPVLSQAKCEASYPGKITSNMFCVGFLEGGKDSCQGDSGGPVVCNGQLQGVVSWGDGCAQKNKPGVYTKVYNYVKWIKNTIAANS

[4] = Oral bioavailability in dog; type: ADME, organism-based, Canis lupus familiaris; conditions: in vivo
Tryptase = Tryptase (Homo sapiens, UniProt Q9BZJ3+Q15661+Q9NRR2); experiment: Binding affinity against Tryptase.; type: protein assay
Coagulation factor X = Coagulation factor X (Homo sapiens, UniProt P00742)
Coagulation factor X, sequence (P00742 41-179 limits assumed): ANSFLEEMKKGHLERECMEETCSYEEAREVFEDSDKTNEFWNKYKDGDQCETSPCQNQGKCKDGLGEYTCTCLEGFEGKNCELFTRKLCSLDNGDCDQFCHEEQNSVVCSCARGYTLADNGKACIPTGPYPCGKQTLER
Coagulation factor X, sequence (P00742 235-488 limits assumed): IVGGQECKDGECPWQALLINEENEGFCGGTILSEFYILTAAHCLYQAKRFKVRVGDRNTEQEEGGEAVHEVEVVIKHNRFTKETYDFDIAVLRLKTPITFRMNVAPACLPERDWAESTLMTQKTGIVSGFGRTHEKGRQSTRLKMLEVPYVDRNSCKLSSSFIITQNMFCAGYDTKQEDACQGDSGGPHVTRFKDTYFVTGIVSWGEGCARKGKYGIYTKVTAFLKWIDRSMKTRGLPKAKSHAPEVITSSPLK

[5] = The irreversible inhibitor activity by second order rate equation.; type: ADME
Interstitial collagenase = molecular target: T4, Interstitial collagenase (Homo sapiens, UniProt P03956)
T4 sequence (P03956 whole entry): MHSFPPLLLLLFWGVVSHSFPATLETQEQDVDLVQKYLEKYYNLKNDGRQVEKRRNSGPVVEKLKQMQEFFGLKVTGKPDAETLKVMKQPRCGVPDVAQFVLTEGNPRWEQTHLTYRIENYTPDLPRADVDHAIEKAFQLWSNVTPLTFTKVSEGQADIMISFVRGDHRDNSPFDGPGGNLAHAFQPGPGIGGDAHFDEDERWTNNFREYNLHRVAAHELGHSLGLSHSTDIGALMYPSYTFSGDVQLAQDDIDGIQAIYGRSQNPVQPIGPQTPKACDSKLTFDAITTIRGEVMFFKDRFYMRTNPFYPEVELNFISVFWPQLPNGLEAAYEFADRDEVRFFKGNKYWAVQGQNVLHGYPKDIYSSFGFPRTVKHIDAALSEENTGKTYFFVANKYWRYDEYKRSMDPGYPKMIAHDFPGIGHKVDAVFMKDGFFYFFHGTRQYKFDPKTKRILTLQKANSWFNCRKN

Stromelysin-1 = Stromelysin-1 (Homo sapiens, UniProt P08254)
Stromelysin-1, sequence (P08254 whole entry): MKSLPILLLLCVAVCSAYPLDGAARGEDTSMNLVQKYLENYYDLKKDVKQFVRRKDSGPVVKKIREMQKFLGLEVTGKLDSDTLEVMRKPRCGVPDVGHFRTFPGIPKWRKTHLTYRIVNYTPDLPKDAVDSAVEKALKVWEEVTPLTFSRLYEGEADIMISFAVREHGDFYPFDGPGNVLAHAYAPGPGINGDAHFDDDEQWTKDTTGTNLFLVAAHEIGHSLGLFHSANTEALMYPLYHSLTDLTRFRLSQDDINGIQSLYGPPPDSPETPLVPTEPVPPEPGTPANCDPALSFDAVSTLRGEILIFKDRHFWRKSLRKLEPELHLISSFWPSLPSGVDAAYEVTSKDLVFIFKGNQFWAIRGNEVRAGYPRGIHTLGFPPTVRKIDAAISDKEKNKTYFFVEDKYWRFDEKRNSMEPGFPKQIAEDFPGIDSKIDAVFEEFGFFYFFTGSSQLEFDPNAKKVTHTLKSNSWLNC

Matrilysin = Matrilysin (Homo sapiens, UniProt P09237); experiment: Inhibition of matrix metalloprotease-7 (MMP-7).
Matrilysin, sequence (P09237 whole entry): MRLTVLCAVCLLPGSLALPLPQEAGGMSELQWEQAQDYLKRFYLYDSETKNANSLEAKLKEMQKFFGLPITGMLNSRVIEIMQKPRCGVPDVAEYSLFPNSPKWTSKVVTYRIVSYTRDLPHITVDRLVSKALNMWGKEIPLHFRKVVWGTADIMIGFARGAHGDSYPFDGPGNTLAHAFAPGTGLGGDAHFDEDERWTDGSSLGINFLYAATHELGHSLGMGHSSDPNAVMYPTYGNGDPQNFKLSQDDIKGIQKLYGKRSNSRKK

Procathepsin L [6] = molecular target: T1, Procathepsin L; experiment: Inhibitory activity against cathepsin L, lysosomal cysteine protease
Serine protease 1 [7] = molecular target: T3, Serine protease 1; experiment: Inhibitory concentration against Trypsin
[8] = Inhibitory concentration against Chymotrypsinogen
Plasminogen = Plasminogen (Rattus norvegicus, UniProt Q01177); experiment: Inhibitory concentration against Plasmin
[9] = Inhibitory concentration against Elastase
[10] = molecular target: 72 kDa type IV collagenase (Homo sapiens, UniProt P08253)
72 kDa type IV collagenase, sequence (P08253 whole entry): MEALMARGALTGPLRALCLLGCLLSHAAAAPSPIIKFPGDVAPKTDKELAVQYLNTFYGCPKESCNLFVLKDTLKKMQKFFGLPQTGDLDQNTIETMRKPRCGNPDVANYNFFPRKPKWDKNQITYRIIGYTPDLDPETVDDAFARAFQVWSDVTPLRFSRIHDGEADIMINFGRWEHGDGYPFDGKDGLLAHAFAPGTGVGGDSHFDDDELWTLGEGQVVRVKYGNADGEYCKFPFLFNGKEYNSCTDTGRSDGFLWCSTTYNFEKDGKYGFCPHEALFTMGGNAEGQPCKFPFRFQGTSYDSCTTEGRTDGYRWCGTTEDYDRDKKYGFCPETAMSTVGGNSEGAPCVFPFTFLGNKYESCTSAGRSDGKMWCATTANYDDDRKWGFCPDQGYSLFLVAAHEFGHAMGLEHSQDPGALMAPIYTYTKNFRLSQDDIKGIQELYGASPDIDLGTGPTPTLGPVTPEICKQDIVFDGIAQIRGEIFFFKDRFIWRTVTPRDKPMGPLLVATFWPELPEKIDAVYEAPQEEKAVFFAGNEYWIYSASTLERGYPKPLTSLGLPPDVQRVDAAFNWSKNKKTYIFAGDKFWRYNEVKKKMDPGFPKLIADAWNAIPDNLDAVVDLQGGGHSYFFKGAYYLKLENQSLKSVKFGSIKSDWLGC

[11] = molecular target: T5, Calpain-1 catalytic subunit (Homo sapiens, UniProt P07384); experiment: The binding affinity against calpain.
T5 sequence (P07384 whole entry): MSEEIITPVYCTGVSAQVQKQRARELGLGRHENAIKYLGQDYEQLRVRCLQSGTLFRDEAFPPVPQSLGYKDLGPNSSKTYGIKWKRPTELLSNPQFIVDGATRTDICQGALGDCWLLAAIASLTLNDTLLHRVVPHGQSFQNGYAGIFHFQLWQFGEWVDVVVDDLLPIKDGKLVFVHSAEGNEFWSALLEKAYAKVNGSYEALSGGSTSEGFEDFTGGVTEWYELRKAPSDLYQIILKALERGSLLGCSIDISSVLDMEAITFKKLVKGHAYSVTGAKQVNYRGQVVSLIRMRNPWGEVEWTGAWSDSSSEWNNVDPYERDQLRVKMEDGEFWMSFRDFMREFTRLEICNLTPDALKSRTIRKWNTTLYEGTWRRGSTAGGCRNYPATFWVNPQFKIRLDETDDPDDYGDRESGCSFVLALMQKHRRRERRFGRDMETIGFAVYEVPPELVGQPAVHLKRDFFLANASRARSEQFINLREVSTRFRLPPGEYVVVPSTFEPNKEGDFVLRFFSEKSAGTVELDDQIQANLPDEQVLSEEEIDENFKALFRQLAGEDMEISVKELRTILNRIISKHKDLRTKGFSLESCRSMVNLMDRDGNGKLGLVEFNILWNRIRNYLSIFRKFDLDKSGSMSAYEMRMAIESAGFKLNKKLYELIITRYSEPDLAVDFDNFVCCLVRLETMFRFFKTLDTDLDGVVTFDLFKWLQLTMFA

- Ki (Cathepsin S): 910 nM
- Ki (Procathepsin L [1]): > 1000 nM
- Ki (Cathepsin B): > 10000 nM
- Ki (Cathepsin K): 1.4 nM
SMILES: CC(C)C[C@H](C(=O)NCC(=O)CNS(=O)(=O)c1ccc(Oc2ccccc2)cc1)c1cccc(-c2ccccc2)c1

- IC50 (Neprilysin): 11 nM
- IC50 [2]: > 10000 nM
SMILES: O=C(O)C(CCc1ccccc1)N[C@@H](Cc1ccccc1)C(=O)NC[C@H](O)C(=O)O (stereo partly drawn)

- Ki (Serine protease 1 [3]): 0.46 nM
- bioavailability [4]: 45%
SMILES: CC1=CCN(C(=O)[C@H](Cc2ccc(C(=N)N)cc2)NS(=O)(=O)c2ccc3c(c2)CN(C)CC3)[C@@H](C(=O)O)C1

- bioavailability [4]: 90%
SMILES: NC1CCC(CNC(=O)[C@@H]2CCCN2C(=O)[C@H](N)C(C2CCCCC2)C2CCCCC2)CC1 (stereo partly drawn)

- Ki (Serine protease 1 [3]): 84000 nM
- Ki (Tryptase): 0.6 nM
SMILES: NCc1ccc(CNC(=O)CNC(=O)OCc2ccc(COC(=O)NCC(=O)NCc3ccc(CN)cc3)cc2)cc1

- IC50 [2]: 0.4 nM
SMILES: C[C@H](CSC(=O)c1ccccc1)C(=O)N1C[C@@H](Sc2ccccc2)C[C@H]1C(=O)O [ZOFENOPRIL]

- IC50 (Coagulation factor X): 270 nM
SMILES: N=C(N)c1cccc(-c2cccc([C@H](CCCNc3ccncc3)C(=O)O)c2)c1

- K second [5]: 5.7 M⁻¹ s⁻¹
SMILES: CC(C)C[C@H](NC(=O)N1CCNCC1)C(=O)N[C@H](C/C=C/S(=O)(=O)c1ccccc1)CCc1ccccc1

- Ki (Interstitial collagenase): 590 nM
- Ki (Stromelysin-1): 9.3 nM
- Ki (Matrilysin): 1200 nM
SMILES: O=C(NO)C1(CS(=O)(=O)c2ccc(Oc3ccc(Cl)cc3)cc2)CCOCC1 [CTS-1027]

- Ki (Cathepsin K): 1.4 nM
SMILES: CC(C)C[C@@H](C=O)NC(=O)[C@H](CC(C)C)NC(=O)[C@H](CC(C)C)NC(=O)OCc1ccccc1 [MG-132] (Cbz-Leu-Leu-Leu-aldehyde)

- IC50 [2]: 19 nM
SMILES: CCCCc1nc(Cl)c(CO)n1Cc1ccc(-c2ccccc2-c2nn[nH]n2)cc1 [LOSARTAN]

- IC50 (Procathepsin L [6]): 0.74 nM
SMILES: O=CC(Cc1ccccc1)NC(=O)C(Cc1ccccc1)NC(=O)OCc1ccccc1 (stereo not drawn) (Cbz-Phe-Phe-aldehyde; configuration not given here)

- IC50 (Serine protease 1 [7]): 36500 nM
- IC50 [8]: 10.8 µg/mL (≈ 31.3 µM)
- IC50 (Plasminogen): > 145000 nM
- IC50 [9]: 21.6 µg/mL (≈ 62.5 µM)
SMILES: CC(/C=C/C=C/c1ccccc1)=C1/SC(=S)N(CC(=O)O)C1=O

- IC50 [2]: 4 nM
SMILES: CCOC(=O)[C@H](CCc1ccccc1)N[C@@H](C)C(=O)N1[C@H](C(=O)O)C[C@@H]2CCC[C@@H]21

- Ki [10]: 3000 nM
SMILES: CNC(=O)[C@@H](Cc1c(F)c(F)c(F)c(F)c1F)NC(=O)Nc1nnc(S)s1

- IC50 [2]: 1 nM
SMILES: CCC(=O)O[C@@H](O[P@](=O)(CCCCc1ccccc1)CC(=O)N1C[C@H](C2CCCCC2)C[C@H]1C(=O)O)C(C)C [FOSINOPRIL]

- Ki [11]: 41000 nM
SMILES: CC[C@H](NC(=O)[C@H](CC(C)C)NC(=O)OCc1ccccc1)C(=O)C(=O)NCCCN1CCOCC1
